Reference: patent publication US20050239654A1, “Synergistically acting herbicidal mixtures” (priority 2002, published 2005)

Experiments:
Assay in all cases: Herbicidal action, post-emergence treatment, greenhouse
Type in all cases: in vivo
Avena fatua = test system: Avena fatua
From the text: (§1) The mixtures according to the invention were applied pre- or post-emergence (foliar treatment). The herbicidal compounds of component B and, if desired, of component C were applied in the formulation in which they are present as commercially available product.
(§2) The herbicidally active compounds of components A), B) and, if desired, C) were applied in succession or jointly, in the latter case in some cases as a tank mix and in some cases as a ready-mix, in the form of emulsions, aqueous solutions or suspensions, the vehicle being water (300-400 l/ha). In the case of the field trials, application was effected with the aid of a mobile plot sprayer.
(§3) The test period extended over 3 to 8 weeks, and the stands were also observed at later points in time.
(§4) Damage by the herbicidal compositions was evaluated with reference to a scale of 0% to 100 in comparison with untreated control plots. 0 means no damage and 100 means complete destruction of the plants.
(§5) In these examples, the value E at which only an additive effect of the individual active ingredients is to be expected was calculated by the method of S. R. Colby (Calculating synergistic and antagonistic responses of herbicide combinations, Weeds 15, 20 pp (1967)).
(§6) This was done using the formula [formula] where • X=Percentage of the herbicidal action of X at an application rate of x; • Y=Percentage of the herbicidal action of Y at an application rate of Y; • E=expected herbicidal action of X+Y at rates of application x+y (in %); or the formula [formula] where • X=Percentage of the herbicidal action of X at an application rate of x; • Y=Percentage of the herbicidal action of Y at an application rate of y; • Z=Percentage of the herbicidal action of Z at an application rate of z; • E=expected herbicidal action of X+Y+Z at rates of application x+y+z (in %)
(§7) If the value observed exceeds the value E calculated in accordance with Colby's formula, then synergism is present.

Commelina benghalensis = settings: Table 4, 3.91 g/ha ai
From the text: as §1, §2, §3, §4, §5, §6, §7

Galium aparine = test system: Galium aparine
From the text: as §1, §2, §3, §4, §5, §6, §7

Abutilon theophrasti = test system: Abutilon theophrasti
From the text: as §1, §2, §3, §4, §5, §6, §7

Amaranthus retroflexus = test system: Amaranthus retroflexus
From the text: as §1, §2, §3, §4, §5, §6, §7

Pharbitis purpurea = settings: Table 12, 62.5 g/ha ai
From the text: as §1, §2, §3, §4, §5, §6, §7

Brachiaria plantaginea = test system: Brachiaria plantaginea
From the text: as §1, §2, §3, §4, §5, §6, §7

Polygonum persicaria = test system: Polygonum persicaria
From the text: as §1, §2, §3, §4, §5, §6, §7

Echinochloa crus-galli = test system: Echinochloa crus-galli
From the text: as §1, §2, §3, §4, §5, §6, §7

## Cc1c(C(=O)c2cnn(C)c2O)ccc(S(C)(=O)=O)c1C1=NOCC1 [Ia.29, 4-[2-methyl-3-(4,5-dihydroisoxazol-3-yl)-4-methylsulfonyl-benzoyl]-1-methyl-5-hydroxy-1H-pyrazole]
Avena fatua; Table 5, 0.98 g/ha ai
  Avena fatua Damage: 0%
Avena fatua; Table 6, 1.95 g/ha ai
  Avena fatua Damage: 10%
Commelina benghalensis
  Commelina benghalensis Damage: 50%
Galium aparine; Table 7, 0.98 g/ha ai
  Galium aparine Damage: 20%
Galium aparine; Table 8, 1.95 g/ha ai
  Galium aparine Damage: 30%
Abutilon theophrasti; Table 3, 0.98 g/ha ai
  Abutilon theophrasti Damage: 30%
Abutilon theophrasti; Table 9, 7.81 g/ha ai
  Abutilon theophrasti Damage: 85%
Amaranthus retroflexus; Table 5, 0.98 g/ha ai
  Amaranthus retroflexus Damage: 60%
Amaranthus retroflexus; Table 7, 0.98 g/ha ai
  Amaranthus retroflexus Damage: 60%

## CCNc1nc(Cl)nc(NC(C)C)n1 [atrazine]
Pharbitis purpurea
  Pharbitis purpurea Damage: 80%
Brachiaria plantaginea; Table 10, 125 g/ha ai
  Brachiaria plantaginea Damage: 25%
Brachiaria plantaginea; Table 16, 62.5 g/ha ai
  Brachiaria plantaginea Damage: 20%
Polygonum persicaria; Table 11, 125 g/ha ai
  Polygonum persicaria Damage: 60%
Polygonum persicaria; Table 13, 62.5 g/ha ai
  Polygonum persicaria Damage: 40%
Polygonum persicaria; Table 17, 62.5 g/ha ai
  Polygonum persicaria Damage: 40%
Echinochloa crus-galli; Table 10, 125 g/ha ai
  Echinochloa crus-galli Damage: 30%
Echinochloa crus-galli; Table 12, 62.5 g/ha ai
  Echinochloa crus-galli Damage: 20%
Echinochloa crus-galli; Table 14, 125 g/ha ai
  Echinochloa crus-galli Damage: 30%
Echinochloa crus-galli; Table 16, 62.5 g/ha ai
  Echinochloa crus-galli Damage: 20%
Galium aparine; Table 7, 15.6 g/ha ai
  Galium aparine Damage: 0%
Galium aparine; Table 8, 31.25 g/ha ai
  Galium aparine Damage: 20%
Galium aparine; Table 11, 125 g/ha ai
  Galium aparine Damage: 60%
Galium aparine; Table 15, 125 g/ha ai
  Galium aparine Damage: 60%
Abutilon theophrasti; Table 9, 125 g/ha ai
  Abutilon theophrasti Damage: 30%
Abutilon theophrasti; Table 14, 125 g/ha ai
  Abutilon theophrasti Damage: 30%
Amaranthus retroflexus; Table 7, 15.6 g/ha ai
  Amaranthus retroflexus Damage: 40%
